Measured values as given in ChEMBL document CHEMBL1201862, “PubChem BioAssay data set” (2004).
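Cells were grown in 96-well plates and exposed to each compound for 48 hours at five concentrations; endpoints were interpolated linearly between bracketing concentrations, or set to the highest concentration if not reached. Here, GI50 denotes the concentration required for 50% inhibition of growth.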 Active and inactive are the calls of the source. No stated cut-off is given here; in the data, active = GI50 up to about 1.1 µM and inactive = higher.

How the values were obtained:
Test in all cases: NCI tumour cell line growth inhibition, 48 h
IGROV-1 = test system: IGROV-1
ACHN = test system: ACHN
DMS-273 = test system: DMS-273
TK-10 = test system: TK-10
NCI-H460 = test system: NCI-H460
HOP-92 = test system: HOP-92
HOP-62 = test system: HOP-62
UO-31 = test system: UO-31
DMS-114 = test system: DMS-114
COLO 205 = test system: COLO 205
786-0 = test system: 786-0
SK-MEL-2 = test system: SK-MEL-2
DLD-1 = test system: DLD-1
KM-20L2 = test system: KM-20L2
EKVX = test system: EKVX
K562 = test system: K562
RPMI-8226 = test system: RPMI-8226
UACC-257 = test system: UACC-257
LOX IMVI = test system: LOX IMVI
A498 = test system: A498
HL-60 = test system: HL-60
Malme-3M = test system: Malme-3M
KM12 = test system: KM12
M19-MEL = test system: M19-MEL
SNB-75 = test system: SNB-75
HCC 2998 = test system: HCC 2998
SF-268 = test system: SF-268
UACC-62 = test system: UACC-62
SNB-19 = test system: SNB-19
CAKI-1 = test system: CAKI-1
HOP-18 = test system: HOP-18
OVCAR-8 = test system: OVCAR-8
A549 = test system: A549
SF-539 = test system: SF-539
NCI-H23 = test system: NCI-H23
CCRF-CEM = test system: CCRF-CEM
NCI-H522 = test system: NCI-H522
SNB-78 = test system: SNB-78
MOLT-4 = test system: MOLT-4
SK-MEL-28 = test system: SK-MEL-28
U-251 = test system: U-251
SF-295 = test system: SF-295
OVCAR-5 = test system: OVCAR-5
SK-MEL-5 = test system: SK-MEL-5
SK-OV-3 = test system: SK-OV-3
OVCAR-3 = test system: OVCAR-3
RXF 393 = test system: RXF 393
HT-29 = test system: HT-29
SW-620 = test system: SW-620
HCT-15 = test system: HCT-15
LXFL 529 = test system: LXFL 529
M14 = test system: M14
SN12C = test system: SN12C
NCI-H226 = test system: NCI-H226
HCT-116 = test system: HCT-116

`CC(=O)NNc1nc(C)c(C(=O)/C=C/c2ccc(Cl)cc2)s1` was tested, and the GI50 (IGROV-1) was > 100 µM (inactive), the GI50 (ACHN) was > 100 µM (inactive) and the GI50 (DMS-273) was > 100 µM (inactive). For the same compound, the GI50 (TK-10) was > 100 µM (inactive), the GI50 (NCI-H460) was > 100 µM (inactive) and the GI50 (HOP-92) was > 100 µM (inactive). For the same compound, the GI50 (HOP-62) was > 100 µM (inactive), the GI50 (UO-31) was > 100 µM (inactive) and the GI50 (DMS-114) was > 100 µM (inactive). The GI50 (COLO 205) was > 100 µM (inactive), the GI50 (786-0) was > 100 µM (inactive) and the GI50 (SK-MEL-2) was > 100 µM (inactive). The GI50 (DLD-1) was > 100 µM (inactive), the GI50 (KM-20L2) was > 100 µM (inactive) and the GI50 (EKVX) was 57.7 µM (inactive). For the same compound, the GI50 (K562) was > 100 µM (inactive), the GI50 (RPMI-8226) was > 100 µM (inactive) and the GI50 (UACC-257) was > 100 µM (inactive). The GI50 (LOX IMVI) was > 100 µM (inactive), the GI50 (A498) was > 100 µM (inactive) and the GI50 (HL-60) was > 100 µM (inactive). The GI50 (Malme-3M) was > 100 µM (inactive), the GI50 (KM12) was > 100 µM (inactive) and the GI50 (M19-MEL) was > 100 µM (inactive). For the same compound, the GI50 (SNB-75) was > 100 µM (inactive), the GI50 (HCC 2998) was > 100 µM (inactive) and the GI50 (SF-268) was > 100 µM (inactive). For the same compound, the GI50 (UACC-62) was > 100 µM (inactive), the GI50 (SNB-19) was > 100 µM (inactive) and the GI50 (CAKI-1) was > 100 µM (inactive). For the same compound, the GI50 (HOP-18) was > 100 µM (inactive), the GI50 (OVCAR-8) was > 100 µM (inactive) and the GI50 (A549) was > 100 µM (inactive). For the same compound, the GI50 (SF-539) was > 100 µM (inactive), the GI50 (NCI-H23) was > 100 µM (inactive) and the GI50 (CCRF-CEM) was > 100 µM (inactive). The GI50 (NCI-H522) was > 100 µM (inactive), the GI50 (SNB-78) was > 100 µM (inactive) and the GI50 (MOLT-4) was > 100 µM (inactive). The GI50 (SK-MEL-28) was > 100 µM (inactive), the GI50 (U-251) was > 100 µM (inactive) and the GI50 (SF-295) was > 100 µM (inactive). The GI50 (OVCAR-5) was > 100 µM (inactive), the GI50 (SK-MEL-5) was > 100 µM (inactive) and the GI50 (SK-OV-3) was > 100 µM (inactive). For the same compound, the GI50 (OVCAR-3) was > 100 µM (inactive), the GI50 (RXF 393) was > 100 µM (inactive) and the GI50 (HT-29) was > 100 µM (inactive). The GI50 (SW-620) was > 100 µM (inactive).

In the case of `CCc1cc2c(c3[nH]ccc13)[C@@H](C)C[C@H]2C`, the GI50 (IGROV-1) is reported as 19.4 µM (inactive), the GI50 (ACHN) is reported as 16.7 µM (inactive) and the GI50 (HCT-15) is reported as 14.4 µM. For the same compound, the GI50 (DMS-273) was 18 µM (inactive), the GI50 (TK-10) was 19.5 µM (inactive) and the GI50 (NCI-H460) was 14.9 µM (inactive). The GI50 (HOP-92) was 16.2 µM (inactive), the GI50 (UO-31) was 18.3 µM (inactive) and the GI50 (DMS-114) was 19.9 µM (inactive). The GI50 (COLO 205) was 19.9 µM (inactive), the GI50 (786-0) was 15 µM (inactive) and the GI50 (DLD-1) was 16.4 µM (inactive). The GI50 (EKVX) was 20.7 µM (inactive), the GI50 (K562) was 21.6 µM (inactive) and the GI50 (RPMI-8226) was 20.1 µM (inactive). For the same compound, the GI50 (UACC-257) was 19.9 µM (inactive), the GI50 (LOX IMVI) was 12.7 µM (inactive) and the GI50 (A498) was 15.6 µM (inactive). The GI50 (HL-60) was 21.8 µM (inactive), the GI50 (Malme-3M) was 18.6 µM (inactive) and the GI50 (LXFL 529) was 18 µM (inactive). The GI50 (KM12) was 19.1 µM (inactive), the GI50 (M19-MEL) was 17.2 µM (inactive) and the GI50 (SNB-75) was 17.5 µM (inactive). The GI50 (HCC 2998) was 21.2 µM (inactive), the GI50 (UACC-62) was 16.9 µM (inactive) and the GI50 (M14) was 17.2 µM (inactive). For the same compound, the GI50 (SN12C) was 15.6 µM (inactive), the GI50 (CAKI-1) was 15.8 µM (inactive) and the GI50 (HOP-18) was 18.4 µM (inactive). The GI50 (OVCAR-8) was 19.7 µM (inactive), the GI50 (A549) was 19.6 µM (inactive) and the GI50 (SF-539) was > 10 µM (inactive). For the same compound, the GI50 (NCI-H23) was 17.8 µM (inactive), the GI50 (CCRF-CEM) was 20.4 µM (inactive) and the GI50 (NCI-H522) was 16.2 µM (inactive). The GI50 (SNB-78) was 16.4 µM (inactive), the GI50 (MOLT-4) was 14.3 µM (inactive) and the GI50 (SK-MEL-28) was 16.1 µM (inactive). The GI50 (U-251) was 16.4 µM (inactive), the GI50 (SF-295) was 18.8 µM (inactive) and the GI50 (SK-MEL-5) was 16.9 µM (inactive). The GI50 (SK-OV-3) was 30.5 µM (inactive), the GI50 (NCI-H226) was 16.4 µM (inactive) and the GI50 (HCT-116) was 16 µM (inactive). For the same compound, the GI50 (OVCAR-3) was 20 µM (inactive), the GI50 (RXF 393) was 13.8 µM (inactive) and the GI50 (HT-29) was 19.7 µM (inactive). The GI50 (SW-620) was 19.8 µM (inactive).
